Literature values in patent publication US20080038318A1, “Composition; Use Of A Composition And A Method For Treating Obesity” (priority 2004, published 2008).

Test system: normal and obese volunteers
Conditions: in vivo

For `CCCCCCCCCCC[C@@H](C[C@@H]1OC(=O)[C@H]1CCCCCC)OC(=O)[C@H](CC(C)C)NC=O` [orlistat], the “reduction of the absorption of triacylglycerols” value is listed as 30%.
